Assay results from ChEMBL document CHEMBL1201862, “PubChem BioAssay data set” (2004).
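Method: 48-hour compound exposure of cells in 96-well plates, five concentrations, linear interpolation of endpoints. At the GI50, growth is halved.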 Active and inactive are the calls of the source. Rule as the data show it: active = GI50 up to about 1.1 µM and inactive = higher.

Tests used:
Test in all cases: NCI anticancer screen, dose series, 48 h
EKVX = tested on: EKVX
A549 = tested on: A549
A498 = tested on: A498
ACHN = tested on: ACHN
HOP-62 = tested on: HOP-62
SNB-19 = tested on: SNB-19
U-251 = tested on: U-251
RXF 393 = tested on: RXF 393
RPMI-8226 = tested on: RPMI-8226
HCC 2998 = tested on: HCC 2998
KM-20L2 = tested on: KM-20L2
SF-295 = tested on: SF-295
OVCAR-8 = tested on: OVCAR-8
OVCAR-3 = tested on: OVCAR-3
HOP-92 = tested on: HOP-92
SN12C = tested on: SN12C
SW-620 = tested on: SW-620
OVCAR-4 = tested on: OVCAR-4
CAKI-1 = tested on: CAKI-1
MCF7 = tested on: MCF7

Measured: GI50

CCCc1nn(C)c(CCC(=O)N(Cc2ccccc2)Cc2ccccc2)c1CC
inactive: EKVX > 100 µM | A549 > 100 µM | A498 > 100 µM | ACHN > 100 µM | HOP-62 > 100 µM | SNB-19 > 100 µM | U-251 > 100 µM | RXF 393 > 100 µM | RPMI-8226 > 100 µM | HCC 2998 > 100 µM | KM-20L2 > 100 µM | SF-295 > 100 µM | OVCAR-8 > 100 µM | OVCAR-3 > 100 µM | HOP-92 > 100 µM | SN12C > 100 µM | SW-620 > 100 µM | OVCAR-4 > 100 µM

C1=CC2CCC1CN2CCC1CNc2ccccc21 (stereo not given)
inactive: EKVX > 100 µM | A549 > 100 µM | A498 > 100 µM | ACHN > 100 µM | HOP-62 > 100 µM | SNB-19 > 100 µM | U-251 > 100 µM | RXF 393 75.3 µM | RPMI-8226 > 100 µM | HCC 2998 > 100 µM | KM-20L2 > 100 µM | SF-295 > 100 µM | OVCAR-8 > 100 µM | OVCAR-3 > 100 µM | HOP-92 > 100 µM | SN12C > 100 µM | SW-620 > 100 µM

COC(=O)/C=C1/CCC2[C@@H](C(=O)CC3[C@]2(C)CCC[C@@]3(C)C(=O)OC)C1C (stereo not given in full)
inactive: EKVX 24 µM | A549 15.6 µM | A498 17.7 µM | ACHN 10.1 µM | HOP-62 21.9 µM | SNB-19 17.4 µM | U-251 15.4 µM | RPMI-8226 2.98 µM | HCC 2998 20.1 µM | KM-20L2 13.1 µM | SF-295 17.7 µM | OVCAR-8 12.3 µM | OVCAR-3 7.67 µM | HOP-92 5.13 µM | SN12C 15.3 µM | SW-620 5.86 µM | OVCAR-4 8.73 µM | CAKI-1 5.36 µM

Cc1cc(O)nc(NNC(C#N)c2ccccc2O)n1 (stereo not given)
inactive: A549 16.8 µM | ACHN 16.6 µM | HOP-62 31.3 µM | U-251 15.2 µM | RXF 393 > 100 µM | RPMI-8226 22 µM | KM-20L2 13.1 µM | SF-295 38.4 µM | OVCAR-8 35.7 µM | OVCAR-3 10.8 µM | HOP-92 75.5 µM | SN12C 73.6 µM | SW-620 44.6 µM | OVCAR-4 15.5 µM | CAKI-1 30.8 µM

COc1ccc(/C=N/N=C(\N)NO)cc1OC
inactive: EKVX 26.2 µM | A549 28.4 µM | ACHN 25.6 µM | HOP-62 31.9 µM | SNB-19 > 100 µM | U-251 38.1 µM | RXF 393 30.5 µM | RPMI-8226 > 100 µM | HCC 2998 > 100 µM | KM-20L2 37.8 µM | SF-295 46.9 µM | OVCAR-8 38.4 µM | OVCAR-3 > 100 µM | HOP-92 84.7 µM | SN12C 45.8 µM | SW-620 65.2 µM | OVCAR-4 99.1 µM | CAKI-1 29.5 µM

COC(=O)C1=C(c2ccc(OC)c(OC)c2)OC(c2ccc(OC)c(OC)c2)C1 (stereo not given)
inactive: EKVX 39.7 µM | A549 42.3 µM | A498 12.7 µM | ACHN 25.4 µM | HOP-62 59.4 µM | U-251 36.1 µM | RXF 393 25.6 µM | RPMI-8226 37.6 µM | HCC 2998 66.1 µM | KM-20L2 39.4 µM | SF-295 27.6 µM | OVCAR-8 29.5 µM | OVCAR-3 33.9 µM | HOP-92 13.8 µM | SN12C 27.9 µM | SW-620 35.3 µM | OVCAR-4 27.9 µM

COc1ccc(-c2cc(=O)c3c(O)cc(O)cc3o2)c(OC)c1OC
inactive: EKVX > 100 µM | A549 59.3 µM | ACHN > 10 µM | HOP-62 > 100 µM | SNB-19 > 100 µM | RXF 393 48.8 µM | RPMI-8226 17.6 µM | HCC 2998 92 µM | KM-20L2 30.1 µM | SF-295 87.5 µM | OVCAR-3 38.9 µM | HOP-92 72.6 µM | SN12C > 100 µM | SW-620 71.1 µM | OVCAR-4 62.8 µM | CAKI-1 60.8 µM

CCN(CC)c1ccc2c(c1)N=C1N=CC=CN1C2(c1ccc(N(C)C)cc1)c1ccc(N(C)C)cc1
inactive: EKVX 9.73 µM | A549 12 µM | A498 17.5 µM | ACHN 4.5 µM | HOP-62 10.9 µM | SNB-19 11.4 µM | U-251 4.32 µM | RXF 393 8.57 µM | RPMI-8226 2.9 µM | HCC 2998 3.24 µM | KM-20L2 2.97 µM | SF-295 3.64 µM | OVCAR-8 4.19 µM | OVCAR-3 3.16 µM | HOP-92 2.82 µM | SN12C 5.27 µM | CAKI-1 11.1 µM

CS(=O)(=O)c1ccc(COP(N)(=O)N(CCCl)CCCl)cc1 (stereo not given)
inactive: A549 > 100 µM | A498 > 100 µM | ACHN > 100 µM | HOP-62 > 100 µM | SNB-19 > 100 µM | U-251 > 100 µM | RXF 393 > 100 µM | RPMI-8226 > 100 µM | HCC 2998 > 100 µM | KM-20L2 > 100 µM | SF-295 > 100 µM | OVCAR-8 > 100 µM | OVCAR-3 > 100 µM | HOP-92 > 100 µM | SN12C > 100 µM | SW-620 > 100 µM | OVCAR-4 > 100 µM | CAKI-1 > 100 µM

O=C(N/C(=C\c1cccc([N+](=O)[O-])c1)c1nc2cc([N+](=O)[O-])ccc2[nH]1)c1ccccc1
inactive: EKVX 51.9 µM | A549 26.8 µM | ACHN 28.4 µM | SNB-19 45.4 µM | U-251 40.7 µM | RXF 393 12.8 µM | HCC 2998 33.5 µM | KM-20L2 23.1 µM | SF-295 40.4 µM | OVCAR-8 31 µM | OVCAR-3 40.6 µM | HOP-92 21.4 µM | SN12C 39.4 µM | SW-620 35.1 µM | OVCAR-4 19.5 µM | CAKI-1 30.4 µM

O=[N+]([O-])/C=C/c1ccc(Cl)cc1Cl
inactive: A549 21 µM | ACHN 16.8 µM | HOP-62 14.2 µM | SNB-19 17.8 µM | U-251 5.66 µM | RPMI-8226 2.44 µM | HCC 2998 15.5 µM | KM-20L2 18.7 µM | SF-295 17 µM | OVCAR-8 25.4 µM | OVCAR-3 19.9 µM | HOP-92 15.3 µM | SW-620 12.1 µM | OVCAR-4 19.8 µM | CAKI-1 16.3 µM

Cc1ccccc1C(C#N)/C(=N/NC(=O)C(=O)NN)C(=O)Nc1cccc(C(F)(F)F)c1 (stereo not given)
inactive: EKVX > 100 µM | A549 > 100 µM | A498 > 100 µM | ACHN > 100 µM | HOP-62 > 100 µM | SNB-19 > 100 µM | U-251 > 100 µM | RPMI-8226 > 100 µM | HCC 2998 > 100 µM | KM-20L2 > 100 µM | SF-295 > 100 µM | OVCAR-8 > 100 µM | OVCAR-3 > 100 µM | HOP-92 > 100 µM | SN12C > 100 µM | SW-620 > 100 µM | OVCAR-4 > 100 µM | CAKI-1 > 100 µM

COC[C@@H](/N=C/N1CCc2cc(OC)c(OC)cc2C1)C(C)(C)C
inactive: EKVX > 100 µM | A549 > 100 µM | ACHN > 100 µM | HOP-62 > 100 µM | SNB-19 > 100 µM | U-251 > 100 µM | RXF 393 > 100 µM | RPMI-8226 > 100 µM | KM-20L2 > 100 µM | SF-295 > 100 µM | OVCAR-8 > 100 µM | OVCAR-3 > 100 µM | HOP-92 > 100 µM | SN12C > 100 µM | SW-620 > 100 µM | OVCAR-4 > 100 µM | CAKI-1 > 100 µM

CC(C)C(Nc1c2ccccc2nc2ccccc12)C(=O)O (stereo not given)
inactive: EKVX 67.8 µM | A549 > 100 µM | ACHN 49.2 µM | SNB-19 > 100 µM | U-251 > 100 µM | RXF 393 > 100 µM | RPMI-8226 32.5 µM | HCC 2998 > 100 µM | KM-20L2 > 100 µM | SF-295 > 100 µM | OVCAR-8 > 100 µM | OVCAR-3 94.2 µM | HOP-92 29.2 µM | SN12C > 100 µM | SW-620 > 100 µM | OVCAR-4 20.7 µM | CAKI-1 > 100 µM

O=C1Nc2ccccc2/C1=C\c1c(Cl)nc2n1CCS2
inactive: EKVX 22.9 µM | A549 31.3 µM | A498 18.8 µM | ACHN 38.3 µM | HOP-62 29 µM | SNB-19 35.6 µM | U-251 22.1 µM | RXF 393 22.6 µM | RPMI-8226 27.7 µM | MCF7 13 µM | HCC 2998 17.9 µM | SF-295 25.2 µM | OVCAR-8 34.4 µM | OVCAR-3 20.4 µM | HOP-92 34 µM | SN12C 24.9 µM | SW-620 31.3 µM | OVCAR-4 31.5 µM | CAKI-1 34.8 µM

CC(C)CCC[C@@H](C)[C@H]1CC[C@H]2[C@@H]3CC[C@H]4C[C@@H](CCC=C(c5cc(Cl)c(O)c(C(=O)O)c5)c5cc(Cl)c(O)c(C(=O)O)c5)CC[C@]4(C)[C@H]3CC[C@]12C
inactive: EKVX > 100 µM | A549 > 100 µM | A498 > 100 µM | ACHN > 100 µM | HOP-62 > 100 µM | SNB-19 > 100 µM | U-251 > 100 µM | RXF 393 > 100 µM | RPMI-8226 > 100 µM | MCF7 > 100 µM | HCC 2998 > 100 µM | SF-295 > 100 µM | OVCAR-8 > 100 µM | OVCAR-3 > 100 µM | HOP-92 > 100 µM | SN12C > 100 µM | SW-620 > 100 µM | OVCAR-4 > 100 µM | CAKI-1 > 100 µM
